Patent US9745305B2, “Modulators of methyl modifying enzymes, compositions and uses thereof” (Constellation Pharmaceuticals, Inc., priority 2013, dated 2017)

How the values were obtained:
[1] = test system: H3K27me3 mark in Hela cells expressing wild type EZH2; experiment: H3K27me3 MSD Hela Assay; type: cell-based; conditions: read-out: H3K27me3_MSD_HeLa (EC50)
Description: H3K27me3 MSD Hela Assay. Trypsinized HeLa cells were counted and diluted in 10% DMEM (Life Technologies, Cat. #10569) to 5000 cells/75 μL. Seventy-five μL of cells were place in each well of a 96-well flat-bottomed plate and incubated at 37° C. for 4 hours. Twenty-five μL of test compound (at various concentrations) was added to the cells and incubation continued at 37° C. for 96 hours. Media was then removed and the cells rinsed once with ice cold PBS. Forty μL of ice-cold MSD Buffer AT (10 mM HEPES, pH 7.9, 5 mM MgCl2, 0.25M sucrose, Benzonase (1:10000), 1% Triton X-100 supplemented with fresh 1× Protease Inhibitor cocktail and 1 mM 4-(2-Aminoethyl)benzenesulfonyl fluoride hydrochloride (AEBSF)) was added to each well and the plates placed on ice for 30 minutes. Ten μL of 5M NaCl was then added to each well and incubation on ice continued for another 15 minutes. The material in each well was suspended pipetting up and down and then transferred to a new 96 well plate. The emptied wells were rinsed with 150 uL ice-cold 20 mM Tris pH 7.5, 1 mM EDTA, 1 mM EGTA, supplemented with fresh 1× Protease Inhibitor cocktail and 1 mM AEBSF (“NO salt NO detergent buffer) and transferred to the respective wells in the new plate. Three hundred μL of NO Salt NO detergent buffer was then added to each well of lysates and the plates frozen at −80° C.
On the same day, an appropriate number of MSD standard bind 96-well plates were coated with 30 μL/well of total H3 capture antibody (Millipore, Cat # MAB3422) at 1 μg/mL concentration in PBS. The antibody solution was evenly distributed first by tapping gently on the sides of the plates and then by shaking the plates for a few minutes at 1000 rpm. Antibody coated plates were stored at 4° C. overnight.
The next day the lysates are thawed to RT. The antibody coated MSD plates are washed 3× with TBS-T (Tris-buffered saline (Fisher Scientific, Cat #BP2471-1)+0.2% Tween-20). One-hundred fifty μL of 5% Blocker A in TBS-T is added to each well. The wells are covered and shaken on a shaker at RT for one hour. The Blocker A step is repeated a second time. After removing the blocker, 25 μL of cell lysate is transferred into each antibody coated well. The plates are shaken for 2 hours at RT, the lysate removed and the plates again washed with Blocker A in TBS-T. Twenty-five μL of appropriate freshly prepared antibody mix (including both primary and secondary antibodies) is added to each well and the plates shaken for 1 hour at RT.
Both H3 antibodies were obtained from Cell Signalling (Cat #s 4499 and 9733). The goat anti-rabbit antibody was obtained from Meso-Scale Discovery (Cat #R32AB-1).
The antibody mix was then removed and the wells washed with Blocker A. One hundred-fifty μL of freshly prepared 1×MSD Read Buffer (Meso-Scale Discovery; Cat #R927C-2) was then added to each well and the plates read on a MSD Sector 2400 Plate Reader.
(§1) Data was analyzed using Assay Assistant (Constellation Pharmaceuticals In-house product) and Activity Base (IDBS Ltd, Surrey, UK) template. Data files were imported to Assay Assistant and assay conditions were specified. A unique Analysis ID was created and the data files exported to Activity Base. An analysis template was created on Activity Base to measure dose-dependent inhibition of H3K27me3 mark and cell viability respectively. Readout of DMSO wells were used to normalize the data. Resulting curves were fitted using Activity base software Model 205 (IDBS Ltd, Surrey, UK). The data was checked for quality, validated and integrated in excel format using SARview (IDBS Ltd, Surrey, UK).

[2] = target: EZH2 (Homo sapiens, UniProt Q15910); experiment: EZH2 Assay (3H SAM methyl transfer, rPRC2, FlashPlate); type: biochemical; conditions: rPRC2, biotinylated oligonucleosomes, 0.2 μM 3H SAM, 2 nM EZH2
Description: (§2) EZH2 Assay: Assays were carried out by mixing rPRC2 together with biotinylated oligonucleosome substrates in the presence of the radio-labeled enzyme co-factor, S-adenosyl-L-methionine (^3H SAM) (Perkin Elmer) and monitoring the enzymatically mediated transfer of tritiated methyl groups from ^3H SAM to histone lysine residues. The amount of resulting tritiated methyl histone product was measured by first capturing the biotinylated oligonucleosomes in streptavidin (SAV) coated FlashPlates (Perkin Elmer), followed by a wash step to remove unreacted ^3H SAM, and then counting on a TopCount NXT 384 well plate scintillation counter (Perkin Elmer). The final assay conditions for EZH2 were as follows: 50 mM Tris Buffer pH 8.5, 1 mM DTT, 69 μM Brij-35 detergent, 5.0 mM MgCl2, 0.1 mg/mL BSA, 0.2 μM ^3H SAM, 0.2 μM biotinylated oligonucleosomes, 3.6 μM H3K27me3 peptide and 2 nM EZH2.
(§3) Compound IC50 measurements were obtained as follows: Compounds were first dissolved in 100% DMSO as 10 mM stock solutions. Ten point dose response curves were generated by dispensing varying amounts of the 10 mM compound solution in 10 wells of the 384 well plate (Echo; Labcyte), pure DMSO was then used to backfill the wells to insure all wells have the same amount of DMSO. A 12.5 μL volume of the HMT enzyme, H3K27me3 peptide and oligonucleosome substrate in assay buffer was added to each well of the assay plate using a Multidrop Combi (ThermoFisher). Compounds were pre-incubated with the enzyme for 20 min, followed by initiation of the methyltransferase reaction by addition of 12.5 μL of ^3H SAM in assay buffer (final volume=25 μL). The final concentrations of compounds ranged from a top default concentration of 80 μM down to 0.16 μM in ten 2-fold dilution steps. Reactions were carried out for 60 minutes and quenched with 20 μL per well of 1.96 mM SAH, 50 mM Tris pH 8.5, 200 mM EDTA. Stopped reactions were transferred to SAV coated Flashplates (Perkin Elmer), incubated for 120 min, washed with a plate washer, and then read on the TopCount NXT (1.0 min/well) to measure the amount of methyl histone product formed during the reaction. The amount of methyl histone product was compared with the amount of product formed in the 0% and 100% inhibition control wells allowing the calculation of % Inhibition in the presence of the individual compounds at various concentrations. IC50's were computed using a 4 parameter fit non-linear curve fitting software package (XLFIT, part of the database package, ActivityBase (IDBS)) where the four parameters were IC50, Hill slope, pre-transitional baseline (0% INH), and post-transitional baseline (100% INH); with the latter two parameters being fixed to zero and 100%, respectively, by default.

[3] = target: Y641N EZH2 (Homo sapiens, UniProt Q15910, Y641N); experiment: Assay for Y641N EZH2 (as the EZH2 assay, H3K27Me2 oligonucleosomes as substrate); type: biochemical; conditions: Y641N EZH2 mutant, reconstituted H3K27Me2 oligonucleosomes as substrate
Description: as §2, §3
Assay for Y641N EZH2 was performed as above using reconstituted H3K27Me2 oligonucleosomes as substrate.

[4] = test system: H3K27me3 mark in Hela cells expressing wild type EZH2; experiment: H3K27me3 Alpha Hela Assay (AlphaLISA); type: cell-based; conditions: Homo sapiens, 72 hrs, read-out: H3K27me3_Alpha_HeLa (EC50)
Description: H3K27me3 Alpha Hela Assay (AlphaLISA). Ten different doses of each test compound (in a series of 3-fold dilutions) were plated in duplicate 384-well tissue culture treated plates (Catalog #781080; Greiner Bio One; Monroe, N.C.). Hela cells grown in culture were trypsinized and counted using a Countess® cell counter (Catalog # C10281; Life Technologies, Grand Island, N.Y.). Cell were diluted to 67,000 cells per mL in 10% DMEM (Catalog #10569-010 Life Technologies, Grand Island, N.Y.) and 15 μL (1,000 cells) were plated into each well using the Biotek MicroFlo™ Select Dispenser (BioTek Instruments, Inc. Vermont, USA),) of the 384-well plate. Plates were incubated at 37° C./5% CO2 for 72 hrs. One of the duplicate plates was processed for HeLa assay and the other for viability.
To the plate processed for AlphaLISA was added 5 μL per well Cell-Histone Lysis buffer (1×) (Catalog # AL009F1 Perkin Elmer; Waltham, Mass.) and the plate was incubated at RT for 30 minutes on a plate shaker with low speed (Model#4625-Q Thermo Scientific; Waltham, Mass.). Then, 10 μL per well Histone Extraction buffer (catalog # AL009F2; Perkin Elmer; Waltham, Mass.) was added and the plate further incubated at RT for 20 min on plate shaker with low speed. To each well was then added 10 μL per well of a 5× mix of anti-K27me3 acceptor beads plus Biotinylated anti-Histone H3 (C-ter) Antibody (diluted to 3 nM final) (Catalog #AL118 Perkin Elmer; Waltham, Mass.). Dilution of the acceptor beads and then anti-Histone H3 was with 1× Histone Detection buffer (Catalog # AL009F3 Perkin Elmer; Waltham, Mass.) which was produced diluted from the 10× stock provided. The plate was sealed with an aluminum plate sealer and incubated at 23° C. for 60 min. We then added 10 μL 5× solution of Streptavidin Donor beads (Catalog #6760002 Perkin Elmer; Waltham, Mass.) (20 μg/mL final in 1× Histone Detection Buffer), sealed the plate with Aluminum plate sealer and incubated at 23° C. for 30 min. The plates were then read using an EnVision-Alpha Reader (model #2104 Perkin Elmer; Waltham, Mass.).
as §1, with “Data from both assays was analyzed” for “Data was analyzed”

EZH2, sequence (Q15910 whole entry): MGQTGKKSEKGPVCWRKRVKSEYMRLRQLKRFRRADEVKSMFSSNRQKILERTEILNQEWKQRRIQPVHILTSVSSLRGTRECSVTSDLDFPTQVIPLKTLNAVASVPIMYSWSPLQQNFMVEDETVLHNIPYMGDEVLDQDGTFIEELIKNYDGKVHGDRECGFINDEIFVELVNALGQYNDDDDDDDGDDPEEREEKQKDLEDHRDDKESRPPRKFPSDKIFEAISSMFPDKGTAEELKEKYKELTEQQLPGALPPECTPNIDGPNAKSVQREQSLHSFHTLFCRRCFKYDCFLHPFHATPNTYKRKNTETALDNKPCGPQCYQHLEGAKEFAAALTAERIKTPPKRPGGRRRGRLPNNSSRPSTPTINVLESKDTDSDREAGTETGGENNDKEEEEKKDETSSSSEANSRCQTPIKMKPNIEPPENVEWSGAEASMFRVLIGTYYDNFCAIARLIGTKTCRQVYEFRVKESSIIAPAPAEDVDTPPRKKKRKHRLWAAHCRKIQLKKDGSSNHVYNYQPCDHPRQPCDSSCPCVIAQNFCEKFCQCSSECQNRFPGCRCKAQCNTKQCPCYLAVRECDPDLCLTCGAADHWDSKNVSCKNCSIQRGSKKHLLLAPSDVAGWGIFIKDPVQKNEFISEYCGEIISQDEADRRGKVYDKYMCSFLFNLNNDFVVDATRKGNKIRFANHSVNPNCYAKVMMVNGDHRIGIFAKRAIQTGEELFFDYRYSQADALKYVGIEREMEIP
EZH2, sequence (O75530 whole entry partner): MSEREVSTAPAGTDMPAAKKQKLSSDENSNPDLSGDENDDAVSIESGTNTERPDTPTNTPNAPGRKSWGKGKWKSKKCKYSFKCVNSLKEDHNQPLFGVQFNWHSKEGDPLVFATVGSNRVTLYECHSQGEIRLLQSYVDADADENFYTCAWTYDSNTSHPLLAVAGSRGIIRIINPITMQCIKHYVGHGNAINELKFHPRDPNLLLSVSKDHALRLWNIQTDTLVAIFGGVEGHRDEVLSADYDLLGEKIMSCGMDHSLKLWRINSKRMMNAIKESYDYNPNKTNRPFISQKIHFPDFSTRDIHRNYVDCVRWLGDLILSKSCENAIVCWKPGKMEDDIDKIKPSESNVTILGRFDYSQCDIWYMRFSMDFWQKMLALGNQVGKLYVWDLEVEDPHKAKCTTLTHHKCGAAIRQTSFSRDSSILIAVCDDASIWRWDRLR
EZH2, sequence (Q15022 whole entry partner): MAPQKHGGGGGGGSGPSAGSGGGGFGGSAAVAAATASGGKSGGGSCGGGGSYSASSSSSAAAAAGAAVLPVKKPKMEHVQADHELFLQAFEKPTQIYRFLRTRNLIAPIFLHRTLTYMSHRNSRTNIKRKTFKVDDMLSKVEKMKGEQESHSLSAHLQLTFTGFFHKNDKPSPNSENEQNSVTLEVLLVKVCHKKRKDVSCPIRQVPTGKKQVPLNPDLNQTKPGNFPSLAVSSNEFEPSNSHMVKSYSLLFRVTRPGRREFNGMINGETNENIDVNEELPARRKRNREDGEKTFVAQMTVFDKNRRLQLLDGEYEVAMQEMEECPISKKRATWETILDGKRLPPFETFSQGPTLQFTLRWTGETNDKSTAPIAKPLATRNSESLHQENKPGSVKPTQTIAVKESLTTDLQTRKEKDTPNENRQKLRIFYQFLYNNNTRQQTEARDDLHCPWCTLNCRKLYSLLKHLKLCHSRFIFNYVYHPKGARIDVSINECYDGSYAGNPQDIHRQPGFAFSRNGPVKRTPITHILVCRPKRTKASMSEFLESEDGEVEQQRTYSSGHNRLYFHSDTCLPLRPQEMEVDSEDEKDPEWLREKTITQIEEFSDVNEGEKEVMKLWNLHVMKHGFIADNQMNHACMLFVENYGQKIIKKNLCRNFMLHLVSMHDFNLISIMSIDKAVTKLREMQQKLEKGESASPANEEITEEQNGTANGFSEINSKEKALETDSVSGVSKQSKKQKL
Y641N EZH2, sequence (Q15910 whole entry Y641N): as the sequence (Q15910 whole entry) above, with Y641N counted along it
Y641N EZH2, sequence (O75530 whole entry partner): as the sequence (O75530 whole entry partner) above
Y641N EZH2, sequence (Q15022 whole entry partner): as the sequence (Q15022 whole entry partner) above

EC50 ([1]; Homo sapiens, HeLa, 96 h) [nM] | IC50 [2] [nM] | IC50 [3] [nM] | EC50 ([1]; 96 hours) [nM] | EC50 [4] [nM] | Compound
400 to 2000 | < 100 | < 100 | – | – | COc1cc(C)[nH]c(=O)c1CNC(=O)c1c(C)c(C(C)C2CC2)n2ncccc12 (racemic) [Compound 102, (±)-7-(1-cyclopropylethyl)-N-((4-methoxy-6-methyl-2-oxo-1,2-dihydropyridin-3-yl)methyl)-6-methylpyrrolo[1,2-b]pyridazine-5-carboxamide]
400 to 2000 | < 100 | 100 to 1000 | – | – | COc1cc(C)[nH]c(=O)c1CNC(=O)c1c(C)c(C(C)N(C)S(C)(=O)=O)n2ncccc12 (racemic) [Compound 103, (±)-N-((4-methoxy-6-methyl-2-oxo-1,2-dihydropyridin-3-yl)methyl)-6-methyl-7-(1-(N-methylmethylsulfonamido)ethyl)pyrrolo[1,2-b]pyridazine-5-carboxamide]
– | – | – | < 400 | – | COc1cc(C)[nH]c(=O)c1CNC(=O)c1c(C)c(C(C)c2ccccc2)n2ncccc12 (single isomer, unassigned) [Compound 106, (R or S)-N-((4-methoxy-6-methyl-2-oxo-1,2-dihydropyridin-3-yl)methyl)-6-methyl-7-(1-phenylethyl)pyrrolo[1,2-b]pyridazine-5-carboxamide]
– | < 100 | 1000 to 10000 | – | < 400 | COc1cc(C)[nH]c(=O)c1CNC(=O)c1c(C)c(C(C)C2CCN(C(=O)C(F)F)CC2)n2ncccc12 (stereo not shown) [Compound 138, 7-(1-(1-(2,2-difluoroacetyl)piperidin-4-yl)ethyl)-N-((4-methoxy-6-methyl-2-oxo-1,2-dihydropyridin-3-yl)methyl)-6-methylpyrrolo[1,2-b]pyridazine-5-carboxamide]
– | < 100 | < 100 | – | < 400 | COc1cc(C)[nH]c(=O)c1CNC(=O)c1c(C)c(C(C)C2CCN(C(=O)C(F)(F)F)CC2)n2ncccc12 (stereo not shown) [Compound 139, N-((4-methoxy-6-methyl-2-oxo-1,2-dihydropyridin-3-yl)methyl)-6-methyl-7-(1-(1-(2,2,2-trifluoroacetyl)piperidin-4-yl)ethyl)pyrrolo[1,2-b]pyridazine-5-carboxamide]
– | < 100 | 1000 to 10000 | – | < 400 | COc1cc(C)[nH]c(=O)c1CNC(=O)c1c(C)c(C(C)C2CCN(CC(C)(F)F)CC2)n2ccncc12 (stereo not shown) [Compound 140, 6-(1-(1-(2,2-difluoropropyl)piperidin-4-yl)ethyl)-N-((4-methoxy-6-methyl-2-oxo-1,2-dihydropyridin-3-yl)methyl)-7-methylpyrrolo[1,2-a]pyrazine-8-carboxamide]
– | < 100 | < 100 | – | < 400 | COc1cc(C)[nH]c(=O)c1CNC(=O)c1c(Cl)c(C(C)C2CCN(CC(C)(C)O)CC2)n2ncccc12 (stereo not shown) [Compound 142, 6-chloro-7-(1-(1-(2-hydroxy-2-methylpropyl)piperidin-4-yl)ethyl)-N-((4-methoxy-6-methyl-2-oxo-1,2-dihydropyridin-3-yl)methyl)pyrrolo[1,2-b]pyridazine-5-carboxamide]
– | < 100 | 100 to 1000 | – | < 400 | COc1cc(C)[nH]c(=O)c1CNC(=O)c1c(C)c(C(C)C2CCN(CC(C)(C)F)CC2)n2ncccc12 (stereo not shown) [Compound 144, 7-(1-(1-(2-fluoro-2-methylpropyl)piperidin-4-yl)ethyl)-N-((4-methoxy-6-methyl-2-oxo-1,2-dihydropyridin-3-yl)methyl)-6-methylpyrrolo[1,2-b]pyridazine-5-carboxamide]
